Measurements published in PMC9822358, “New Structures, Spectrometric Quantification, and Inhibitory Properties of Cardenolides from Asclepias curassavica Seeds” (Molecules, 2022).

Tests used:
[1] = molecular target: porcine Na^+/K^+-ATPase (purified NKA from S. domesticus cerebral cortex); assay: Na+/K+ ATPase (NKA) inhibitory activity assay (inorganic phosphate released from ATP, absorbance at 700 nm); type: biochemical; details: unadapted NKA from Sus domesticus; read-out: IC50 against porcine NKA
Experimental: We tested the inhibitory capacity of the new compounds 1 and 2 and the known cardenolides 5–10 against porcine NKA. We used an in vitro assay to determine the IC50 of each compound and used ouabain as a reference.
We quantified the NKA inhibitory activity of the isolated cardenolides using purified NKA from S. domesticus cerebral cortex (Sigma-Aldrich-A7510-5UN, Steinheim, Germany), following protocols standardized by Petschenka et al.. Briefly, porcine NKA was diluted in di-water to a final assay concentration of 0.01 U/mL. The ATPase was exposed to exponentially decreasing concentrations from 10^−3 to 10^−8 M of ouabain (Sigma-Aldrich, O3125-1G, Steinheim, Germany) or the cardenolides 1–2 and 5–10. […] The NKA activity after cardenolide exposure was determined by quantification of inorganic phosphate released from enzymatically hydrolysed ATP. The […] levels were measured by photometric determination, reading the absorbance at 700 nm with a microplate reader (BMG Clariostar, BMG Labtech, Germany). The absorbance of each reaction was corrected with the respective background, and the inhibition curves were plotted in R studio [61] with log10-transformed cardenolide concentration versus percent of uninhibited control, with top and bottom asymptotes set to 1 and 0, respectively. […] IC50 values for each cardenolide and ouabain were also calculated from the inhibition curves using R studio. […]

[2] = tested on: porcine NKA; set-up: method as in PMID 33850021; details: cited from earlier work

SMILES: C[C@H]1O[C@@H](O[C@H]2CC[C@@]3(C=O)[C@@H](CC[C@@H]4[C@@H]3CC[C@]3(C)[C@@H](C5=CC(=O)OC5)CC[C@]43O)C2)[C@H](O)[C@H](O)[C@@H]1O [Compound 9, gofruside]
- IC50 [1]: 96.5 nM

SMILES: C[C@@H]1C[C@H](O)[C@]2(O)O[C@@H]3C[C@@]4(C=O)[C@@H](CC[C@@H]5[C@@H]4CC[C@]4(C)[C@@H](C6=CC(=O)OC6)CC[C@]54O)C[C@H]3O[C@@H]2O1 [calotropin]
- log10 IC50 against porcine NKA ([2]; log10 of IC50 in M): −6.56
- IC50 ([2]; read-out: IC50 against porcine NKA): 270 nM

SMILES: CC1CC(O)C2(O)OC3CC4(C=O)C(CCC5C4CCC4(C)C(C6=CC(=O)OC6)C(O)CC54O)CC3OC2O1 (stereo not drawn) [Compound 10, 16α-hydroxycalotropin]
- IC50 [1]: 3670 nM
